The source of these data is ChEMBL document CHEMBL1201862, “PubChem BioAssay data set” (2004).

Common to all, as to test: DTP human tumour cell line panel, 48 h
Experiment [1] has as its system SN12C.
For experiment [2], the system named is BT-549.
The test system of experiment [3] is MDA-MB-435.
The test system of experiment [4] is A498.
Experiment [5] concerns SK-MEL-5.
Experiment [6] relates to SK-OV-3.
The subject of experiment [7] is DU-145.
The subject of experiment [8] is Hs-578T.
The subject of experiment [9] is Malme-3M.
The test system of experiment [10] is HL-60.
In experiment [11] the test system is CAKI-1.
Experiment [12] has as its system MDA-MB-231.
Experiment [13] relates to HT-29.
In experiment [14] the test system is SNB-75.
The subject of experiment [15] is U-251.
Experiment [16] has as its system SF-295.
The subject of experiment [17] is A549.
Experiment [18] deals with UACC-257.
The test system of experiment [19] is SK-MEL-28.

Each structure is given as a SMILES string.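 Dose response: 5 concentrations. Exposure: 48 h. Format: 96-well plates. Endpoint: linear interpolation; highest concentration if not reached. GI50 = concentration required for 50% inhibition of growth.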 Activity calls are given as the source filed them. No stated cut-off is given here; in the data, active = GI50 up to about 1.1 µM and inactive = higher.

A word on the GI50: it is the concentration that inhibits growth by half. Regarding `Cc1ccc2c(O)cc(-c3csc4ccccc34)nc2n1`, the GI50 in [1] was 0.0323 µM (active); in experiment [2], 0.0183 µM (active); in experiment [3], < 0.01 µM (active); in experiment [4], < 0.01 µM (active); in [5] it was < 0.0112 µM (active); in [6] it was < 0.01 µM (active). Besides, the 50% growth inhibitory concentration (GI50) is 0.0163 µM (active) in experiment [7]; 0.0101 µM (active) in experiment [8]; < 0.01 µM (active) in experiment [9]; < 0.01 µM (active) in experiment [10]; < 0.01 µM (active) in [11]; 0.021 µM (active) in experiment [12]. For the same compound, the GI50 was 0.0173 µM (active) in [13]; < 0.01 µM (active) in [14]; < 0.01 µM (active) in experiment [15]; < 0.01 µM (active) in [16]; 0.0164 µM (active) in experiment [17].
Turning to `C#CCCOC(=O)CC1=C(C)/C(=C/c2ccc([S+](C)[O-])cc2)c2ccc(F)cc21` (configuration not stated), the GI50 in experiment [1] is 19.5 µM (inactive); in [2] it was 13.8 µM (inactive); in [3], 4.67 µM (inactive); in experiment [4] it was 10.6 µM (inactive); in [5] it was 12.3 µM (inactive); in [6], 37 µM (inactive). Also, the GI50 is 17.2 µM (inactive) in [7]; 13.5 µM (inactive) in [8]; 15.7 µM (inactive) in [18]; 5.79 µM (inactive) in [10]; 6.19 µM (inactive) in experiment [11]; 8.49 µM (inactive) in experiment [12]. Also, the GI50 in experiment [14] is 16.3 µM (inactive); in experiment [15], 15 µM (inactive); in experiment [16], 13.9 µM (inactive).
As to `O=C1C=C/C(=N/c2ccccc2)c2ccccc21`, the GI50 was 12.8 µM (inactive) in experiment [1]; 14.7 µM (inactive) in [2]; 1.84 µM (inactive) in experiment [3]; 20.3 µM (inactive) in [19]; 21.2 µM (inactive) in experiment [4]; 1.31 µM (inactive) in experiment [5]. For the same compound, the GI50 in experiment [6] was 20.4 µM (inactive); in experiment [7], 1.68 µM (inactive); in experiment [8] it was 3.74 µM (inactive); in experiment [18], 2.64 µM (inactive); in experiment [10], 4.89 µM (inactive); in experiment [11], 14.8 µM (inactive). In addition, the GI50 is 1.9 µM (inactive) in experiment [12]; 16.9 µM (inactive) in [13]; 6.53 µM (inactive) in [14]; 7.82 µM (inactive) in experiment [15]; 7.4 µM (inactive) in experiment [16]; 7.38 µM (inactive) in [17].
As for `COc1cc(C(CN)N(C)C)cc(OC)c1OC` (configuration not stated), the GI50 in [1] is 49.2 µM (inactive); in experiment [2] it was > 100 µM (inactive); in experiment [3] it was > 100 µM (inactive); in experiment [19], > 100 µM (inactive); in experiment [4], > 100 µM (inactive); in experiment [5], > 100 µM (inactive). For the same compound, the GI50 in experiment [6], in experiment [7], in experiment [8], in [9], in [18] and in [10] was > 100 µM (inactive) throughout. The GI50 in [11], in [12], in [13], in experiment [15], in [16] and in experiment [17] was > 100 µM (inactive) each time.
Consider `N/N=C(\N)SCCCCCCCCCCS/C(N)=N/N`, for which the GI50 in experiment [1] was 34.9 µM (inactive); in experiment [2] it was 19.5 µM (inactive); in experiment [3], 32.7 µM (inactive); in [19], 37.8 µM (inactive); in [4] it was 15.1 µM (inactive); in experiment [5] it was 21 µM (inactive). The concentration for 50% growth inhibition (GI50) in [6] is < 0.01 µM (active); in experiment [7], 20.9 µM (inactive); in [8], 30.8 µM (inactive); in experiment [9], 12 µM (inactive); in experiment [18] it was 30.1 µM (inactive); in [10], 17.3 µM (inactive). For the same compound, the GI50 in experiment [11] is 36.1 µM (inactive); in [12] it was 20.4 µM (inactive); in experiment [13], 14.6 µM (inactive); in [15], 17.6 µM (inactive); in [16], 23 µM (inactive); in experiment [17], 18 µM (inactive).
As for `COC(=O)c1c(O)ccc2c1c1cc3ccccc3c(O)c1n2CCc1ccc(OC)c(OC)c1`, the GI50 was > 100 µM (inactive) in experiment [1]; 16.7 µM (inactive) in [2]; 53.7 µM (inactive) in experiment [3]; 17.4 µM (inactive) in [19]; > 100 µM (inactive) in experiment [4]; 26.2 µM (inactive) in experiment [5]. In addition, the GI50 in experiment [6] is > 100 µM (inactive); in [7] it was 96.6 µM (inactive); in [8], 31.4 µM (inactive); in experiment [9], 59.4 µM (inactive); in experiment [18] it was > 100 µM (inactive); in experiment [10] it was 65.9 µM (inactive). In addition, the GI50 in experiment [11] is 68.7 µM (inactive); in experiment [12] it was > 100 µM (inactive); in [13] it was 1.79 µM (inactive); in [15] it was > 100 µM (inactive); in experiment [16] it was 96.8 µM (inactive); in experiment [17], 43.2 µM (inactive).
With `O=C(O)c1ccccc1C(=O)c1ccc2c(c1)Cc1ccccc1-2`, the GI50 in experiment [1] is > 100 µM (inactive); in experiment [2], 78.9 µM (inactive); in experiment [3], 63.4 µM (inactive); in experiment [19], 53.7 µM (inactive); in [4], > 100 µM (inactive); in [5], > 100 µM (inactive). Also, the GI50 in experiment [6] is > 100 µM (inactive); in experiment [7], > 100 µM (inactive); in experiment [8], > 100 µM (inactive); in experiment [9] it was 80.9 µM (inactive); in [18], > 100 µM (inactive); in experiment [11], > 100 µM (inactive). The GI50 is > 100 µM (inactive) in experiment [12]; 48.8 µM (inactive) in experiment [13]; > 100 µM (inactive) in [14]; 54 µM (inactive) in experiment [15]; 69.7 µM (inactive) in [16]; 33.3 µM (inactive) in experiment [17].
For `Clc1cc2nnn(C3CCCO3)c2cc1Cl` (configuration not stated), the GI50 is > 100 µM (inactive) in [1]; 49.7 µM (inactive) in experiment [2]; > 100 µM (inactive) in experiment [3]; 98.4 µM (inactive) in experiment [4]; 75.3 µM (inactive) in [5]; > 100 µM (inactive) in experiment [6]. The GI50 in [7] is > 100 µM (inactive); in experiment [8] it was 62.7 µM (inactive); in [9], > 100 µM (inactive); in experiment [18], > 100 µM (inactive); in [10] it was > 100 µM (inactive); in experiment [11] it was > 100 µM (inactive). For the same compound, the GI50 in experiment [12] was > 100 µM (inactive); in [13], > 100 µM (inactive); in experiment [14], 20 µM (inactive); in experiment [15], > 100 µM (inactive); in experiment [16] it was > 100 µM (inactive); in [17] it was > 100 µM (inactive).
Consider `CCOC(=O)c1cn2c(ccc3sc4ccccc4c(=O)c32)n1`, for which the GI50 in [1], in experiment [2], in experiment [3], in experiment [19], in experiment [4] and in experiment [5] was > 100 µM (inactive) in each case. In addition, the GI50 in experiment [7], in experiment [8], in [9], in experiment [18], in experiment [10] and in experiment [11] was > 100 µM (inactive) in each case. The GI50 in experiment [12], in [13], in experiment [14], in experiment [15], in [16] and in [17] was > 100 µM (inactive) each time.
As to `O=c1c(C(c2ccc(-c3ccccc3)cc2)c2c(O)oc3ccccc3c2=O)c(O)oc2ccccc12`, the GI50 was 16.7 µM (inactive) in [1]; 19.2 µM (inactive) in experiment [2]; 22.8 µM (inactive) in [3]; 16.3 µM (inactive) in experiment [19]; 31 µM (inactive) in [4]; 28.7 µM (inactive) in [5]. The GI50 in experiment [7] is 59.8 µM (inactive); in experiment [8], 24.4 µM (inactive); in experiment [9], 24.7 µM (inactive); in [18], 34.4 µM (inactive); in experiment [10] it was 23.2 µM (inactive); in experiment [11] it was 19.9 µM (inactive). Besides, the GI50 was 23.3 µM (inactive) in experiment [12], 20.3 µM (inactive) in [13], 24.5 µM (inactive) in experiment [14] and 44.8 µM (inactive) in [15].
Consider `O=c1c(C(c2cc(OCc3ccccc3)cc(OCc3ccccc3)c2)c2c(O)oc3ccccc3c2=O)c(O)oc2ccccc12`, for which the GI50 in [1] was 3.71 µM (inactive); in experiment [2], 5.01 µM (inactive); in [3], 4.83 µM (inactive); in experiment [19], 12.7 µM (inactive); in experiment [4], 12 µM (inactive); in [5], 6.59 µM (inactive). Also, the GI50 in experiment [6] was 6.58 µM (inactive); in [7], 6.35 µM (inactive); in experiment [8], 5.96 µM (inactive); in experiment [18], 13 µM (inactive); in experiment [10] it was 2.51 µM (inactive); in experiment [11] it was 7.26 µM (inactive). In addition, the GI50 was 4.57 µM (inactive) in [12]; 4.15 µM (inactive) in [13]; 3.37 µM (inactive) in experiment [14]; 4.78 µM (inactive) in experiment [15]; 5.42 µM (inactive) in experiment [16]; 7.05 µM (inactive) in [17].
